Measurements: patent US8871933B2, “Purified pyrroloquinolinyl-pyrrolidine-2,5-dione compositions and methods for preparing and using same” (ArQule, Inc., priority 2009, dated 2014)
pIC50: −log10 of the molar value.

What was measured:
[1] = test system: MDA-MB-231 breast cancer cells; test: Cancer cell invasion assay (inserts); assay type: cell-based; settings: Homo sapiens, 24 hours pretreatment, 24 hours invasion, estimated, read-out: IC50, inhibition of invasive phenotype
Description: MDA-MB-231 cells were pretreated with indicated concentrations of (−)-trans-3-(5,6-dihydro-4H-pyrrolo[3,2,1-ij]quinolin-1-yl)-4-(1H-indol-3-yl)pyrrolidine-2,5-dione for 24 hours. 300 μl of each cell suspension (at a concentration 0.5×10^6 cells/mL in serum free medium) was placed in individual inserts and incubated for 24 hours at 37° C. The bottom wells housing the inserts contained […] of 10% FBS containing medium. […] Each insert was then transferred to a clean well containing cell stain solution and incubated for 10 minutes at room temperature. The bottom of the insert was destained by incubating in extraction solution and OD was measured at 560 nm. (−)-trans-3-(5,6-dihydro-4H-pyrrolo[3,2,1-ij]quinolin-1-yl)-4-(1H-indol-3-yl)pyrrolidine-2,5-dione inhibited the migration across interstices in confluent cultures of MDA-MB-231 cancer cells. The data represent the mean of two independent experiments. (See FIG. 7)

[2] = molecular target: CAMKIIδ (Homo sapiens, UniProt Q13557); test: Kinase panel inhibition, CAMKIIδ; assay type: biochemical
Description: (−)-trans-3-(5,6-dihydro-4H-pyrrolo[3,2,1-ij]quinolin-1-yl)-4-(1H-indol-3-yl)pyrrolidine-2,5-dione was assessed for its activity to inhibit a large panel (n=230) of human kinases.

[3] = test system: human pancreatic cancer MIA PaCa2; test: Human pancreatic cancer xenograft; assay type: in vivo; settings: monotherapy
Description: The efficacy of (−)-trans-3-(5,6-dihydro-4H-pyrrolo[3,2,1-ij]quinolin-1-yl)-4-(1H-indol-3-yl)pyrrolidine-2,5-dione was also tested in xenograft models with several other cancer cell lines: human pancreatic cancer MIA PaCa2 (FIG. 9, Panel B), human prostate cancer PC3 (FIG. 9, Panel C) and human gastric cancer MKN45 (FIG. 9, Panel D). The cells were treated with (−)-trans-3-(5,6-dihydro-4H-pyrrolo[3,2,1-ij]quinolin-1-yl)-4-(1H-indol-3-yl)pyrrolidine-2,5-dione as a monotherapy at indicated concentrations.

[4] = test system: MDA-MB-231 cells; test: Colony formation / surviving fraction assay; assay type: cell-based; settings: Homo sapiens, two days incubation, colonies counted two weeks later, read-out: IC50 (surviving fraction equaled 50)
Description: MDA-MB-231 cells (ATCC #HTB-26), grown in DMEM plus 15% heat inactivated fetal bovine serum plus 10 mM HEPES pH 7.5, were plated in 60 mm^2 plates (2×10^5 cells per plate). After two days candidate compounds in DMSO at various concentrations were diluted in media and added to individual plates such that the final DMSO concentration in the cell culture media was 0.1%. After two days incubation the culture was trypsinized, cells were washed with media, counted using a hemocytometer and 500 cells, including cell bodies, were plated in 100 mm^2 plates in media. Two weeks later the media was removed and the cell colonies were fixed with methanol for 10 minutes, stained with 1% crystal violet for 10 minutes, washed with water and air dried. Cell colonies were visually counted when there were greater then 50 cells present per colony. Plating efficiency was defined as the average number of colonies formed divided by 500. The surviving fraction was defined as the plating efficiency of a candidate compound divided by the plating efficiency of DMSO multiplied by 100. For candidate compound titrations, the IC50 value was determined by fitting the equation y=Ae^Bx to the data points and extrapolating the concentration where surviving fraction equaled 50. […]

[5] = molecular target: T1, phospho-c-Met (Homo sapiens, UniProt P08581); test: Phospho-c-Met in HT-29 xenograft tumors (immunohistochemistry, Western blotting); assay type: in vivo, mice; settings: single dose 300 mg/kg, 24 hours later
T1 construct: from tissue; host or cells: HT-29 xenograft tumour in mice
Description: A human colon cancer xenograft model with HT-29 human colon cancer cells was established as described in Example 23. The tumor-bearing mice were treated with a single dose of (−)-trans-3-(5,6-dihydro-4H-pyrrolo[3,2,1-ij]quinolin-1-yl)-4-(1H-indol-3-yl)pyrrolidine-2,5-dione (300 mg/kg). The reduction of phospho-c-Met was detected immunohistochemically 24 hours later. […] Western blotting of the tumor sample for phospho-c-Met confirmed the immunohistochemical analysis (FIG. 11, Panel B).

[6] = test system: HT-29 human colon cancer cells; test: Human colon cancer xenograft; assay type: in vivo, female athymic nude mice; settings: for optimal tumor growth inhibition: 20 treatments
Description: In a human colon cancer xenograft model HT-29 human colon cancer cells were inoculated subcutaneously into female athymic nude mice (5×10^6 cells/mouse) and allowed to form palpable tumors. Once the tumors reached approximately 60 mm^3, the animals were treated orally with either (−)-trans-3-(5,6-dihydro-4H-pyrrolo[3,2,1-ij]quinolin-1-yl)-4-(1H-indol-3-yl)pyrrolidine-2,5-dione at 200 mg/kg or 300 mg/kg, or vehicle control daily (5 consecutive days, followed by a 2 day dosing holiday). (−)-trans-3-(5,6-dihydro-4H-pyrrolo[3,2,1-ij]quinolin-1-yl)-4-(1H-indol-3-yl)pyrrolidine-2,5-dione was formulated in PEG 400:20% Vitamin E TPGS (60:40). The animals received a total of 20 treatments of either (−)-trans-3-(5,6-dihydro-4H-pyrrolo[3,2,1-ij]quinolin-1-yl)-4-(1H-indol-3-yl)pyrrolidine-2,5-dione or vehicle control. Tumors were measured throughout treatment and the post-treatment observation period. Each point represents the mean±SEM often tumors. (See, FIG. 9, Panel A)

[7] = test system: MDA-MB-231 human breast cancer cells; test: Human breast cancer xenograft; assay type: in vivo, female athymic nude mice
Description: MDA-MB-231 human breast cancer cells were inoculated subcutaneously into female athymic nude mice (8.0×10^6 cells/mouse) and allowed to form palpable tumors. Once the tumors reached approximately 60 mm^3, the animals were treated orally with (−)-trans-3-(5,6-dihydro-4H-pyrrolo[3,2,1-ij]quinolin-1-yl)-4-(1H-indol-3-yl)pyrrolidine-2,5-dione at 200 mg/kg or vehicle control daily (5 consecutive days, followed by a 2 day dosing holiday). (−)-trans-3-(5,6-dihydro-4H-pyrrolo[3,2,1-ij]quinolin-1-yl)-4-(1H-indol-3-yl)pyrrolidine-2,5-dione was formulated in PEG 400:20% Vitamin E TPGS (60:40). The animals received a total of 20 doses of (−)-trans-3-(5,6-dihydro-4H-pyrrolo[3,2,1-ij]quinolin-1-yl)-4-(1H-indol-3-yl)pyrrolidine-2,5-dione or vehicle control. Tumors were measured throughout treatment and the post-treatment observation period. Each point represents the mean±SEM of ten tumors. (See, FIG. 8)

T1 sequence (P08581 25-1390): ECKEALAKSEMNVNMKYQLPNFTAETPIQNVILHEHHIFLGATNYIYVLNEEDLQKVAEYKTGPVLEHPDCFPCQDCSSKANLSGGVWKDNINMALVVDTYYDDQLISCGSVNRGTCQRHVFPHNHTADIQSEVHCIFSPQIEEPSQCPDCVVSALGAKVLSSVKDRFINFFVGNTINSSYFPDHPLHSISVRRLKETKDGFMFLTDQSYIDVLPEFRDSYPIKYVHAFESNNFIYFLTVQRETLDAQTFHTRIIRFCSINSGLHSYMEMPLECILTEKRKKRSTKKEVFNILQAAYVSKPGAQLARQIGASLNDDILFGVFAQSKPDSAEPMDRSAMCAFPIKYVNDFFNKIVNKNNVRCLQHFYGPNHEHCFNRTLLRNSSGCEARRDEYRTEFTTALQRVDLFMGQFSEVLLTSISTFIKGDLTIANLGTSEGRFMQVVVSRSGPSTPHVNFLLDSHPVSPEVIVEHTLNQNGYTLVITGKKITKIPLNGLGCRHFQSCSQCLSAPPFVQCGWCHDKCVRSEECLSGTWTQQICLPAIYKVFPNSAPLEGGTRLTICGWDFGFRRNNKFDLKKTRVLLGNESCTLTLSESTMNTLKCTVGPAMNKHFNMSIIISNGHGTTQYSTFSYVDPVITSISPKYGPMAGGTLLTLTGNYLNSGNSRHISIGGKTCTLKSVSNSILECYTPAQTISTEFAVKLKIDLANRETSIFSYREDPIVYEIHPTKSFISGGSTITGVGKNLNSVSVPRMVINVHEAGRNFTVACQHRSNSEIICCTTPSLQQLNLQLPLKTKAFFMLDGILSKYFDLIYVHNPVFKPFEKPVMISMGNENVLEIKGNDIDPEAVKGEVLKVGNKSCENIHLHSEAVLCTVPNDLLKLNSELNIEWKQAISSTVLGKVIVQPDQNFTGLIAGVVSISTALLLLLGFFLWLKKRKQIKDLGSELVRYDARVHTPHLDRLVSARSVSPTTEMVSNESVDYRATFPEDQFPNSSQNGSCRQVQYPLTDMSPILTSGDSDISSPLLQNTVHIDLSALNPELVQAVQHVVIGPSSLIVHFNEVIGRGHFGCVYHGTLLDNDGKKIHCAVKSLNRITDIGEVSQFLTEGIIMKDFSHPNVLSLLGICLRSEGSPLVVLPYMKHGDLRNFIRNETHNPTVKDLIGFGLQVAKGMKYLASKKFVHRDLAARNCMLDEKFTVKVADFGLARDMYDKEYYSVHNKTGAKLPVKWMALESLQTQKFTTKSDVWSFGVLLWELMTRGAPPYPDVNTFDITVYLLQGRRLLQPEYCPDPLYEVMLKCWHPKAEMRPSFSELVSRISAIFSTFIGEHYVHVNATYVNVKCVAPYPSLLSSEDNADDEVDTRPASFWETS

Question: With O=C1NC(=O)[C@@H](c2cn3c4c(cccc24)CCC3)[C@@H]1c1c[nH]c2ccccc12 (single isomer, unassigned) [(−)-trans-3-(5,6-dihydro-4H-pyrrolo[3,2,1-ij]quinolin-1-yl)-4-(1H-indol-3-yl)pyrrolidine-2,5-dione] as the molecule, how does the pIC50 [1] read?
Answer: ~6.30

Question: And the pIC50 [2]?
Answer: ~5.00

Question: And the tumor growth [3]?
Answer: significantly inhibited tumor growth

Question: And the pIC50 [4]?
Answer: 6.21

Question: And the “amount of phospho-c-Met in tumor” value [5]?
Answer: significant decrease in the amount of phospho-c-Met

Question: What about the “optimal tumor growth inhibition” value ([6]; 200 mg/kg orally, p=0.006) of the same molecule?
Answer: 39%

Question: And the “optimal tumor growth inhibition” value ([6]; 300 mg/kg orally, p=0.00001)?
Answer: 55%

Question: And the “change in body weight” value ([6]; oral administration at 200 mg/kg or 300 mg/kg)?
Answer: no significant change in body weight

Question: And the Tumor growth inhibition ([7]; 200 mg/kg orally, daily 5 days on / 2 days off, 20 doses, p=0.009)?
Answer: 79%

Question: What about the “change in body weight” value ([7]; oral administration at 200 mg/kg) of the same molecule?
Answer: no significant change in body weight
